Results taken from US11753407B2, “Compounds for treating spinal muscular atrophy” (PTC Therapeutics, Inc., priority 2012, dated 2023).

Columns and labels:
[1] = tested on: SMN2 minigene mRNA (SMN2-A minigene) in HEK293H cells; experiment: SMN2 minigene mRNA splicing RT-qPCR assay in cultured cells; format: cell-based, human; conditions: Homo sapiens, HEK293-H; concentration increasing full length SMN2 mRNA 1.5-fold relative to vehicle-treated cells; HEK293H cells with SMN2-A minigene, 24 hours, 7-point concentration data; read-out: EC1.5x for production of full length SMN2 mRNA
Method in brief: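 HEK293H cells stably carrying the SMN2-A minigene were treated for 24 h at 37 °C with a 7-point, 3.16-fold dilution series of compound. Multiplex RT-qPCR measured exon 7-containing minigene FL mRNA against GAPDH, expressed relative to vehicle by modified ΔΔCt; the EC1.5× is the concentration giving a 1.5-fold increase.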

[2] = tested on: Smn protein in SMA patient fibroblast cells (GM03813); experiment: Smn protein assay in cultured cells (SMN HTRF); format: cell-based, human; conditions: SMA patient fibroblast cells, 48 hours; for EC1.5x for Smn protein expression: 7-point concentration curve, SMN HTRF, concentration producing 1.5 times Smn protein vs DMSO vehicle control; for maximum fold (Fold) increase of Smn protein: 7-point concentration data, fold relative to vehicle control
Method in brief: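 SMA patient fibroblasts (5,000 cells/well, DMEM-10% FBS) were treated for 48 h at 37 °C with a 7-point, 3.16-fold dilution series in triplicate. RIPA lysates were probed by HTRF (anti-SMN d2/kryptate, overnight, room temperature), reading 665/620 nm. EC1.5× is the concentration giving 1.5-fold Smn over DMSO vehicle.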

melting point [°C] | Compound | EC (1.5-fold increase) [1] [µM] | EC1.5x for Smn protein expression [2] | maximum fold (Fold) increase of Smn protein [2]
261 to 263 | CCc1nc(C)cn2nc(-c3cc(=O)n4cc(C5CCN(C)CC5)ncc4n3)cc12 [Compound 654, 2-(4-ethyl-6-methylpyrazolo[1,5-a]pyrazin-2-yl)-7-(1-methylpiperidin-4-yl)-4H-pyrazino[1,2-a]pyrimidin-4-one] | < 0.1 | **** (an EC1.5x≤0.3 μM is indicated by four stars (****)) | ***** (a fold increase >1.65 is indicated by five stars (*****))
190 to 192 | CCc1nc(C)cn2nc(-c3cc(=O)n4cc(C5CCN(C)CC5)ccc4n3)cc12 [Compound 657, 2-(4-ethyl-6-methylpyrazolo[1,5-a]pyrazin-2-yl)-7-(1-methylpiperidin-4-yl)-4H-pyrido[1,2-a]pyrimidin-4-one] | < 0.1 | **** (an EC1.5x≤0.3 μM is indicated by four stars (****)) | ***** (a fold increase >1.65 is indicated by five stars (*****))
194 to 196 | CCc1nc(C)cn2nc(-c3cc(=O)n4cc(C5CCN(CC)CC5)ccc4n3)cc12 [Compound 658, 2-(4-ethyl-6-methylpyrazolo[1,5-a]pyrazin-2-yl)-7-(1-ethylpiperidin-4-yl)-4H-pyrido[1,2-a]pyrimidin-4-one] | < 0.1 | **** (an EC1.5x≤0.3 μM is indicated by four stars (****)) | ***** (a fold increase >1.65 is indicated by five stars (*****))
207 to 209 | CCc1nc(C)cn2nc(-c3cc(=O)n4cc(C5CCN(CCO)CC5)ccc4n3)cc12 [Compound 659, 2-(4-ethyl-6-methylpyrazolo[1,5-a]pyrazin-2-yl)-7-[1-(2-hydroxyethyl)piperidin-4-yl]-4H-pyrido[1,2-a]pyrimidin-4-one] | < 0.1 | **** (an EC1.5x≤0.3 μM is indicated by four stars (****)) | ***** (a fold increase >1.65 is indicated by five stars (*****))
203 to 204 | CCCN1CCC(c2ccc3nc(-c4cc5c(CC)nc(C)cn5n4)cc(=O)n3c2)CC1 [Compound 660, 2-(4-ethyl-6-methylpyrazolo[1,5-a]pyrazin-2-yl)-7-(1-propylpiperidin-4-yl)-4H-pyrido[1,2-a]pyrimidin-4-one] | < 0.1 | **** (an EC1.5x≤0.3 μM is indicated by four stars (****)) | **** (a fold increase between >1.5 and ≤1.65 is indicated by four stars (****))
206 to 208 | CCc1nc(C)cn2nc(-c3cc(=O)n4cc(C5CCN(CCF)CC5)ccc4n3)cc12 [Compound 668, 2-(4-ethyl-6-methylpyrazolo[1,5-a]pyrazin-2-yl)-7-[1-(2-fluoroethyl)piperidin-4-yl]-4H-pyrido[1,2-a]pyrimidin-4-one] | < 0.1 | **** (an EC1.5x≤0.3 μM is indicated by four stars (****)) | ***** (a fold increase >1.65 is indicated by five stars (*****))
216 to 218 | CCc1nc(C)cn2nc(-c3cc(=O)n4cc(C5CCN(CCCF)CC5)ccc4n3)cc12 [Compound 669, 2-(4-ethyl-6-methylpyrazolo[1,5-a]pyrazin-2-yl)-7-[1-(3-fluoropropyl)piperidin-4-yl]-4H-pyrido[1,2-a]pyrimidin-4-one] | < 0.1 | **** (an EC1.5x≤0.3 μM is indicated by four stars (****)) | ***** (a fold increase >1.65 is indicated by five stars (*****))

More lines, now with the values behind:

Compound | melting point [°C] | EC (1.5-fold increase) [1] [µM] | EC1.5x for Smn protein expression [2] | maximum fold (Fold) increase of Smn protein [2]
CCc1nc(C)cn2nc(-c3cc(=O)n4cc(C5CCN(CC)CC5)ncc4n3)cc12 [Compound 655, 2-(4-ethyl-6-methylpyrazolo[1,5-a]pyrazin-2-yl)-7-(1-ethylpiperidin-4-yl)-4H-pyrazino[1,2-a]pyrimidin-4-one] | 273 to 275 | < 0.1 | **** (an EC1.5x≤0.3 μM is indicated by four stars (****)) | **** (a fold increase between >1.5 and ≤1.65 is indicated by four stars (****))
CCc1nc(C)cn2nc(-c3cc(=O)n4cc(C5CCNCC5)ccc4n3)cc12 [Compound 656, 2-(4-ethyl-6-methylpyrazolo[1,5-a]pyrazin-2-yl)-7-(piperidin-4-yl)-4H-pyrido[1,2-a]pyrimidin-4-one] | 236 to 238 | < 0.1 | **** (an EC1.5x≤0.3 μM is indicated by four stars (****)) | **** (a fold increase between >1.5 and ≤1.65 is indicated by four stars (****))
CCc1nc(C)cn2nc(-c3cc(=O)n4cc(N5CCN[C@H](C)C5)ccc4n3)cc12 [Compound 661, 2-(4-ethyl-6-methylpyrazolo[1,5-a]pyrazin-2-yl)-7-[(3R)-3-methylpiperazin-1-yl]-4H-pyrido[1,2-a]pyrimidin-4-one] | 185 to 188 | < 0.1 | **** (an EC1.5x≤0.3 μM is indicated by four stars (****)) | ***** (a fold increase >1.65 is indicated by five stars (*****))
Cc1cn2nc(-c3cc(=O)n4cc(C5CCN(CCCF)CC5)ccc4n3)cc2c(C)n1 [Compound 663, 2-(4,6-dimethylpyrazolo[1,5-a]pyrazin-2-yl)-7-[1-(3-fluoropropyl)piperidin-4-yl]-4H-pyrido[1,2-a]pyrimidin-4-one] | 186 to 188 | < 0.1 | **** (an EC1.5x≤0.3 μM is indicated by four stars (****)) | ***** (a fold increase >1.65 is indicated by five stars (*****))
CCc1nc(C)cn2nc(-c3cc(=O)n4cc(N5CCN(CCF)CC5)ccc4n3)cc12 [Compound 664, 2-(4-ethyl-6-methylpyrazolo[1,5-a]pyrazin-2-yl)-7-[4-(2-fluoroethyl)piperazin-1-yl]-4H-pyrido[1,2-a]pyrimidin-4-one] | 245 to 247 | 0.3 to 1 | *** (an EC1.5× between >0.3 μM and ≤1 μM is indicated by three stars (***)) | ***** (a fold increase >1.65 is indicated by five stars (*****))
CCc1nc(C)cn2nc(-c3cc(=O)n4cc(N5CCN(CCCF)CC5)ccc4n3)cc12 [Compound 665, 2-(4-ethyl-6-methylpyrazolo[1,5-a]pyrazin-2-yl)-7-[4-(3-fluoropropyl)piperazin-1-yl]-4H-pyrido[1,2-a]pyrimidin-4-one] | 240 to 242 | 0.1 to 0.3 | **** (an EC1.5x≤0.3 μM is indicated by four stars (****)) | ***** (a fold increase >1.65 is indicated by five stars (*****))
CCc1nc(C)cn2nc(-c3cc(=O)n4cc(N5CCN(CCF)[C@H](C)C5)ccc4n3)cc12 [Compound 666, 2-(4-ethyl-6-methylpyrazolo[1,5-a]pyrazin-2-yl)-7-[(3R)-4-(2-fluoroethyl)-3-methylpiperazin-1-yl]-4H-pyrido[1,2-a]pyrimidin-4-one] | 255 to 257 | 0.1 to 0.3 | *** (an EC1.5× between >0.3 μM and ≤1 μM is indicated by three stars (***)) | ***** (a fold increase >1.65 is indicated by five stars (*****))
CCc1nc(C)cn2nc(-c3cc(=O)n4cc(N5CCN(CCCF)[C@H](C)C5)ccc4n3)cc12 [Compound 667, 2-(4-ethyl-6-methylpyrazolo[1,5-a]pyrazin-2-yl)-7-[(3R)-4-(3-fluoropropyl)-3-methylpiperazin-1-yl]-4H-pyrido[1,2-a]pyrimidin-4-one] | 244 to 246 | < 0.1 | **** (an EC1.5x≤0.3 μM is indicated by four stars (****)) | ***** (a fold increase >1.65 is indicated by five stars (*****))
Cc1cn2nc(-c3cc(=O)n4cc(C5CCNCC5)cc(C)c4n3)cc2c(C)n1 [Compound 671, 2-(4,6-dimethylpyrazolo[1,5-a]pyrazin-2-yl)-9-methyl-7-(piperidin-4-yl)-4H-pyrido[1,2-a]pyrimidin-4-one] | 247 to 255 | < 0.1 | **** (an EC1.5x≤0.3 μM is indicated by four stars (****)) | ***** (a fold increase >1.65 is indicated by five stars (*****))
Cc1cn2nc(-c3cc(=O)n4cc(N5CCN(CCO)[C@H](C)C5)cc(C)c4n3)cc2c(C)n1 [Compound 673, 2-(4,6-dimethylpyrazolo[1,5-a]pyrazin-2-yl)-7-[(3R)-4-(2-hydroxyethyl)-3-methylpiperazin-1-yl]-9-methyl-4H-pyrido[1,2-a]pyrimidin-4-one] | 273 to 281 | < 0.1 | **** (an EC1.5x≤0.3 μM is indicated by four stars (****)) | **** (a fold increase between >1.5 and ≤1.65 is indicated by four stars (****))
